# Measured values: patent publication US8158589B2, “Peptides with the capacity to bind to transforming growth factor β1 (TGF-β1)” (Proyecto Biomedicine Cima, S.L., priority 2003, dated 2012)
# Entries after “also recorded” stand apart in the source; their conditions may differ. Ends that are not written are not given here.
# Tests used:
# TGF-β1 [1] = molecular target: T1, TGF-β1 (Mus musculus, UniProt P04202); assay: Model of acute liver damage induced by CCl4, type I collagen mRNA by real time PCR; format: in vivo, mice
# T1 construct: from tissue; host or cells: liver of Balb/C mice (CCl4 model); lung of C57BL/6 mice (bleomycin model)
# Outline: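 Female Balb/C mice (25–30 g) received a single oral dose of CCl4 at 2 µl/g body weight in corn oil (1:1). Peptide was given at 50 µg in 500 µl of 1% saline in DMSO every 24 h. At 72 h, liver type I collagen mRNA was quantified by real-time PCR against corn-oil controls.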
# TGF-β1 [2] = molecular target: T1, TGF-β1; assay: Bleomycin-induced pulmonary fibrosis, preventive treatment started two days after bleomycin; format: in vivo, mice
# Protocol: Female C57BL/6 mice (6-8 weeks of age) were obtained from Harlan SL (Barcelona, Spain) and maintained in accordance with the ethical committee of Universidad de Navarra (Spain) for the experimental use of animals. Lung injury was induced with 0.08 units/mouse of bleomycin sulfate (Sigma, Spain) diluted in 200 μl of phosphate buffered saline (PBS). Briefly, the suspension of bleomycin was instilled by pippeting into the nose of mice previously anesthetized with 2% isoflurane vapor. PBS was instilled in mice as a negative control for pulmonary fibrosis (PF), following the same procedures. Peptide treatment was started two days after bleomycin challenge and it was administered intraperitoneally in 500 μl of PBS on alternate days. Mice received high (75 μg/mouse) or low (25 μg/mouse) doses of P17, or the high dose (75 μg/mouse) of control peptide P301. […] To study the therapeutic effect of P17 in the development of fibrosis, it was administered daily ten days after bleomycin challenge, once fibrosis was established. Twenty six days after bleomycin instillation, mice were sacrificed and lung samples were fixed in order to evaluate histological damage.
# Total RNA was purified from IMR-90 fibroblasts and whole lung samples using Ultraspec RNA (Biotecx; Houston, Tex.) according to the manufacturer's instructions. First, 1 μg of RNA was incubated with Dnase I (2 U/μl) (Gibco-BRL) for 30 min at 37° C. Then, samples were reverse-transcribed with the M-MLV Reverse transcriptase (Gibco-BRL) in the presence of RNaseOUT (Gibco-BRL) with ramdon hexamers and poly (dT) oligos according to the manufacturer's protocol. Expression of human Connective Tissue Growth Factor (CTGF) mRNA induced by TGF-β1 in IMR-90 fibroblasts was measured by real time RT-PCR using an ICycler and IQ SYBR Supermix (Bio-Rad, Italy). Actin was used as endogenous reference housekeeping gene. For in vivo analysis, expression of murine Fibronectin (FN), extra domain A of Fibronectin (EDA-FN), Collagen type I and Interferon gamma (IFN-γ) was measured in lungs, using Histone 3 as internal control. The amount of each transcript was expressed by the formula: 2^ΔCt (ΔCt=Ct(control gene)−Ct(gene)), wherein Ct is the threshold cycle number at which an increase in the signal associated with exponential growth of PCR products begins to be detected using Bio-Rad analysis software.
# Lungs were fixed by inflation with 4% paraformaldehyde overnight and dehydrated in 70% ethanol. Tissue was embedded in paraffin wax, 3 μm thick sections were prepared and stained with Masson's trichrome to measure collagen deposition. Percentage of fibrosis in the lung was evaluated by light microscopy by three different qualified persons using a blinded system.
# Dewaxed and rehydrated lung tissue sections were subjected to endogenous peroxidase inactivation with a blocking reagent (DakoCytomation, Denmark) for 10 min. They were then incubated for two hours with a 1/50 dilution in PBS of mouse anti-human α-SMA monoclonal antibody (DakoCytomation) that cross-reacts with mouse α-SMA. Next, sections were incubated for 1 hour with a peroxidase-labeled polyclonal rabbit anti-mouse immunoglobulin (DakoCytomation). Peroxidase activity was visualized using DAB+ Chromogen (DakoCytomation) as substrate and sections were counterstained with Harris hematoxylin. Expression of αSMA was evaluated by light microscopy and expressed as percentage of α-SMA positive area.
# Lymphocyte infiltrate in the lungs was also determined by immunohistochemical analysis. In this case, lung sections were incubated with a mouse anti-human αCD3 monoclonal antibody that cross-reacts with mouse CD3 (NeoMarkers, CA) and then with an anti-mouse immunoglobulin coupled with peroxidase (DakoCytomation). CD3-positive cells were counted in a whole lobe (about 20 fields).
# TGF-β1 [3] = molecular target: TGF-β1 (Homo sapiens, UniProt P01137); assay: Immunofluorescence of p-Smad2 translocation to the nucleus in rabbit corneal fibroblasts; format: cell-based; parameters: host or cells: added to a primary culture of rabbit corneal fibroblasts; conditions: TGF-β1 treated rabbit corneal fibroblasts
# Protocol: Therefore, Western Blot and immunofluorescence studies were conducted to determine, from cells extracted from the in vivo studies, the signaling pathway used by the peptides administered topically. It should be emphasized that said studies were conducted on fibroblasts from rabbit cornea and not from rat cornea. This decision was made due to the difficulty entailed in isolating fibroblasts from rodent eyes.
# [4] = 75 μg/mouse, 14 days after bleomycin instillation, RT-PCR
# T1 sequence (P04202 279-390 limits assumed): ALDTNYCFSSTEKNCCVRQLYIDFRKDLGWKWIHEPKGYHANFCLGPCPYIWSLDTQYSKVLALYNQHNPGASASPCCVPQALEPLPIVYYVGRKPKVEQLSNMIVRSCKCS
# Chain of TGF-β1 (Homo sapiens, UniProt P01137) (P01137 279-390 limits assumed, species assumed): as the sequence (P04202 279-390 limits assumed) above, with S75A counted along it
sequence,measurement,setting,value
"KRIWFIPRSSWYERA [SEQ ID NO: 17, KRIWFIPRSSWYERA]",% Inhibition of type I collagen mRNA induction (in vivo TGF-β1 biological activity),"TGF-β1 [1]; Balb/C mice, oral CCl4, 50 μg of peptide every 24 h, sacrifice after 72 hours",93.09 ± 9.6%
same,inhibition of the biological activity of TGF-β1 in vivo (in words),"TGF-β1 [1]; acute liver damage, type I collagen mRNA",most active peptide; also recorded: much greater extent; also recorded: inhibitory capacity; also recorded: capable of inhibiting the expression of collagen type I mRNA
same,lung fibrosis (Masson's Trichrome),"TGF-β1 [2]; 25 μg/mouse intraperitoneally on alternate days from day 2, day 26",No beneficial effect
same,lung fibrosis (Masson's Trichrome),"TGF-β1 [2]; 75 μg/mouse intraperitoneally on alternate days from day 2, day 26, vs control peptide",significant decrease of fibrosis
same,collagen type I mRNA in lungs,TGF-β1 [2]; [4],significant reduction
same,fibronectin mRNA in lungs,TGF-β1 [2]; [4],significantly downregulated
same,EDA-FN mRNA in lungs,"TGF-β1 [2]; 75 μg/mouse, 14 days after bleomycin instillation, vs control peptide",lower expression levels
same,IFN-γ mRNA expression in lungs,"TGF-β1 [2]; 75 μg/mouse, RT-PCR",upregulated
same,T lymphocytes (CD3+ cells) in lung sections,"TGF-β1 [2]; 75 μg/mouse, vs bleomycin mice with or without P301",significant reduction
same,IL-10 or IL-4 mRNA expression in lungs,"TGF-β1 [2]; P17 vs P301 control peptide, RT-PCR, data not shown",did not show any significant difference
same,areas of myofibroblasts (α-SMA expression) in lungs,"TGF-β1 [2]; high dose 75 μg/mouse, immunohistochemistry",fewer areas of myofibroblasts
same,translocation of p-Smad2 to the nucleus,TGF-β1 [3],did not inhibit
